According to patent publication US6890933B1, “Kinesin inhibitors” (President and Fellows of Harvard College, priority 2000, dated 2005):
Entries after “also recorded” stand apart in the source; their conditions may differ. Read-outs that look alike come from different tables or passages of the source.

How the values were obtained:
[1] = molecular target: T1, human Eg5 (Homo sapiens, UniProt P52732); assay: In vitro NADH enzyme coupled ATPase assay with purified recombinant human Eg5 (Eg5-405); assay type: biochemical
T1 construct: human Eg5 (N-terminal 405 amino acids and 6-His tagged at C terminus); made in house; host or cells: E. coli BL21 pLysS (DE3), plasmid pRSETa
T1 sequence (P52732 1-405 limits assumed): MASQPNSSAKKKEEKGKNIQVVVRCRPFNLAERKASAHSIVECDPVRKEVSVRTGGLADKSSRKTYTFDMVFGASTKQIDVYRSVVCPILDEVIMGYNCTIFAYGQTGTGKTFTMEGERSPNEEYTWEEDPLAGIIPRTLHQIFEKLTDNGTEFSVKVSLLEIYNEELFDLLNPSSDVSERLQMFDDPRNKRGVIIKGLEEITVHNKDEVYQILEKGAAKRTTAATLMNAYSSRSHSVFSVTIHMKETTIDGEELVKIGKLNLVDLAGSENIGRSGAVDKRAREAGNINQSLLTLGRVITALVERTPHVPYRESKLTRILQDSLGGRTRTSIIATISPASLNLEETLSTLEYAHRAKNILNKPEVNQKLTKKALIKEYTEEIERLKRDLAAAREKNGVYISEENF
Description: FIG. 7 depicts a description of the NADH enzyme coupled ATPase assay used to study the inhibition of the ability of purified human recombinant Eg5 to hydrolyze ATP in the presence and absence of 22C16 and monastrol.
(§1) In vitro NADH Enzyme Coupled A TPase: (variation on Methods Described in Crevel, Lockhart, and Cross. J. Mol. Biol. (1997) 273, 160-170.)
For a brief description as the ATPase assay used in the present example, see FIG. 7.
(§2) A solution containing the microtubule resuspension buffer was supplemented with 1 mM Mg-ATP, 100 uM nicotinamide adenine dinucleotide (NADH), 1 mM phosphoenol pyruvate, 5 ug/ml pyruvate kinase, 7.5 ug/ml lactate dehydrogenase, 0.7 uM resuspended microtubules, and 0.5% dimethylsulfoxide (DMSO).
Next, serial dilutions of the compound 22C16 were prepared in the supplemented microtubule resuspension buffer. Purified recombinant human Eg5 protein was added resulting in a final concentration of 50 uM. The subsequent fluorescent reaction was measured in NUNC black walled 384 well plates at 340 nm using a Wallac plate reader.

[2] = molecular target: T2, conventional human kinesin (Homo sapiens, UniProt P33176); assay: NADH enzyme coupled ATPase assay with conventional human kinesin (K560); assay type: biochemical; settings: N-terminal 560 amino acids, 6-His tag
T2 construct: human kinesin (N-terminal 560 amino acids of full length protein followed by 6-His tag at C terminus); made in house; host or cells: E. coli BL21 pLysS (DE3) (the purification section covers Eg5-405 and K560)
T2 sequence (P33176 1-560): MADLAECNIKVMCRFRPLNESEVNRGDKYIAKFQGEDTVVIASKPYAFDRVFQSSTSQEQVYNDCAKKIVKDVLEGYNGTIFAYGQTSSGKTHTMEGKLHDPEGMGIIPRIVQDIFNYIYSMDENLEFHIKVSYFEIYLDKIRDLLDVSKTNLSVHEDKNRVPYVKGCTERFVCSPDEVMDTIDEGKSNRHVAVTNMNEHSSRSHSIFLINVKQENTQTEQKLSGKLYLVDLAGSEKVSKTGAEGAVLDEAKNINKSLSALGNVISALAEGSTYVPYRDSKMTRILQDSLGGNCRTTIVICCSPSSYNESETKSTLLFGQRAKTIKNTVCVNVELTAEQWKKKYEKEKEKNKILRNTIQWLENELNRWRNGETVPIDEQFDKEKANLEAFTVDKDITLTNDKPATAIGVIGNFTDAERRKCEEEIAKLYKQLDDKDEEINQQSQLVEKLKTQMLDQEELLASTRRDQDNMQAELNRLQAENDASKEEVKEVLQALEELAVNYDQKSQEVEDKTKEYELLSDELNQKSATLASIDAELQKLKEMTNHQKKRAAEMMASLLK
Method: Since the effect of 22C16 on mono-astral formation in mammalian cells was similar to that of cells treated with monastrol, the ability of 22C16 to inhibit kinesins was examined.
Purification of Eg5-405 and K560 (560 Amino Acid Kinesin Construct):
as §1, §2

[3] = molecular target: T3, full length Xenopus Eg5 (Xenopus laevis, UniProt P28025); assay: Microtubule motility driven by full length Xenopus Eg5, with washout; assay type: biochemical; settings: full length Xenopus Eg5, washout experiment
T3 construct: Full length Xenopus Eg5 was expressed in baculovirus according to standard protocols; made in house
T3 sequence (P28025 1-1067): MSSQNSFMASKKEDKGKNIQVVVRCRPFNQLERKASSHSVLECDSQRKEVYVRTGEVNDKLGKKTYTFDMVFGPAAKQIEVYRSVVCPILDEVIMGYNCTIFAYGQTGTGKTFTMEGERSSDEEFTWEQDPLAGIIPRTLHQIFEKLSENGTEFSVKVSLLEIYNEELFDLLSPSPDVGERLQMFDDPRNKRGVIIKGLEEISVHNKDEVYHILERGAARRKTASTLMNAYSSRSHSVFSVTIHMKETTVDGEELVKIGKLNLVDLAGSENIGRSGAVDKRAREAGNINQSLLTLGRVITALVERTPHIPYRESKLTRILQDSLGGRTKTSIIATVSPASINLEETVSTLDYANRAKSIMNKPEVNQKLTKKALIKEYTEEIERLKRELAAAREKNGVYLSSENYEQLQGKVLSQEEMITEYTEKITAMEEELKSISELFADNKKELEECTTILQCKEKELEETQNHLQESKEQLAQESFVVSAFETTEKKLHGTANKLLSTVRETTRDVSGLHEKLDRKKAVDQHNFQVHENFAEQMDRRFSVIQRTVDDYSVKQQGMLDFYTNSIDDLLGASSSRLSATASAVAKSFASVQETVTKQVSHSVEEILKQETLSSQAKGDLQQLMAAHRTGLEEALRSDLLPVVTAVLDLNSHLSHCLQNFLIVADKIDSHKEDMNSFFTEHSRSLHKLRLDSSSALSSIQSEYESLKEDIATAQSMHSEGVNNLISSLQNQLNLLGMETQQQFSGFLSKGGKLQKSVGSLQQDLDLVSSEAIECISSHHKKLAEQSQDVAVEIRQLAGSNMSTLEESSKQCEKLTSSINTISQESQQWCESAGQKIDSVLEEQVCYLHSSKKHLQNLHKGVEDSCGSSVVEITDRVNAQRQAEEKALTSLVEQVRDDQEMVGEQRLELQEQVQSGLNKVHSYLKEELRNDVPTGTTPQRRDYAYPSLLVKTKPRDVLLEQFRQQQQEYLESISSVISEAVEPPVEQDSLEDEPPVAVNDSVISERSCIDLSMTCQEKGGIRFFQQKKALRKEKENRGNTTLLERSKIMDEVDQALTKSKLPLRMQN
Method: FIG. 2 depicts the results of experiments examining the motility activity of full length Xenopus Eg5 with and without the beta-carboline, 22C16.
In addition, the ability of 22C16 to inhibit microtubule motility driven by Eg5 was examined. For experimental protocols and details, see Mayer et al. Science 286:971-974, 1999. […] For the washout, Eg5-driven microtubule motility in the presence of 22C16 was measured. The assay chamber was then depleted of 22C16 and motility was immediately measured again. Therefore, the results of the experiment depicted in FIG. 2 provide direct evidence that 22C16 inhibits the microtubule motility driven by Eg5.

[4] = test system: BS-C-1 cells; assay: Cell assay for formation of mono-astral spindle structures (immunofluorescence, DAPI / anti-alpha-tubulin); assay type: cell-based, monkey; settings: for IC50: Primates, BSC-1, BS-C-1 cells, direct comparison, unpublished observations of Mayer and Mitchison, read-out: IC50 (median inhibitory concentration), formation of mono-astral structures
Method: When the effects of 22C16 and monastrol on microtubule structure were directly compared, it was shown by examining formation of mono-astral structures that 22C16 has an IC50 (median inhibitory concentration) of approximately 2 uM as compared to the IC50 of approximately 20 uM for monastrol (Mayer and Mitchison, unpublished observations). For experimental details on the cell assay to determine mono-astral structures, see Mayer et al. Science 286:971-974, 1999. Images of live BS-C-1 cells were taken as described (Cramer et al. Curr. Opin. Cell. Biol. 67:82, 1994). Briefly, for immunofluorescence, BS-C-1 cells were stained with DAPI (4′,6-diamidino-2-phenylindole; Sigma-Aldrich) to visualize DNA and anti-α-tubulin (DM1 A; Sigma-Aldrich, St. Louis) to visualize spindle structure.

[5] = test system: BSC1 cells; assay type: cell-based, monkey

Row | Compound | IC50 [1] [µM] | inhibition of ATPase activity of human Eg5 (in words) ([1]; Eg5 N-terminal 405 amino acids, 6-His tagged) | potency relative to monastrol in inhibition of ATPase activity of human kinesin Eg5 ([1]; ratio of IC50 values) | inhibition of ATPase activity of conventional human kinesin (in words) [2] | inhibition of microtubule motility driven by Eg5 (in words) [3] | IC50 [4] [µM] | spindle phenotype in mitotic cells (in words) ([4]; mitotic mammalian (BSC1) cells) | effect on Golgi (in words) [5] | effect on interphase microtubules (in words) [5] | IC50 ([1]; purified recombinant human Eg5, microtubules, 1 mM Mg-ATP, read-out: IC50, inhibition of Eg5 ATPase activity) [µM] | IC50 lower than monastrol (fold), ATPase assay of Example 2 ([1]; optically purified trans stereoisomer versus monastrol)
1 | CCCCN1C(=O)C2Cc3c([nH]c4ccccc34)C(c3cccc(O)c3)N2C1=O (stereo not drawn) [22C16] | 1.1 | block the ATPase activity; also recorded: capable of inhibiting the ATPase activity; also recorded: inhibits the ability of Eg5 | approximately 5 times | but not conventional human kinesin | acts reversibly to inhibit the motility of Eg5; also recorded: reversibly inhibits microtubule motility | ~2 | caused the formation of monopolar spindles; also recorded: formation of mono-astral spindles; also recorded: capable of arresting cells in mitosis; also recorded: form a mono-astral microtubule array surrounded by a ring of chromosomes | fragmented the Golgi; also recorded: fragmentation of the Golgi | did not depolymerize interphase microtubules; also recorded: without affecting interphase microtubules | – | –
2 | CCOC(=O)C1=C(C)NC(=S)NC1c1cccc(O)c1 (stereo not drawn) [monastrol, reference compound] | – | – | – | – | – | ~20 | – | – | – | 5.3 | –
3 | CCCCN1C(=O)C2Cc3c([nH]c4ccccc34)C(c3cccc(O)c3)N2C1=O (stereo not drawn) [trans isomer of monastroline] | – | – | – | – | – | – | – | – | – | – | approximately 8 times
